Data on five compounds can be found in patent publication US20090156530A1, “Norepinepherine Transporter Mutants and Uses Thereof” (priority 2007, published 2009).

In test [1] the target is T1, NET (Mus musculus, UniProt O55192).
T1 construct: The pellets were collected as synaptosomes; from tissue; host or cells: mouse (C57/B16) brain cortex synaptosomes
The test can be described thus: NE transport assay in cortical synaptosomes. The format is biochemical. The procedure: Cell culture, transfection of cDNA or siRNA, generation of stable cell lines, preparation of cortical synaptosomes. CHO cells were maintained in DMEM/10% fetal bovine serum (FBS), 2 mM L-glutamine (L-Glu), 100 IU/ml penicillin, 100 μg/ml streptomycin (pen/strep). […]. The stable clones were selected using hygromycin B ([…], Invitrogen) and maintained in Ham's F12/10% FBS/L-Glu/pen/strep supplemented with Zeocin […] (Invitrogen). CAD-NET cells were generated by stably transfecting HA-NET in pcDNA3 into CAD cells and maintained in DMEM/F12/8% FBS/L-Glu/pen/strep/200 μg/ml of G418 (Mediatech). TransIT-LT1 transfection reagent (Mirus) was used for all transfections. All cells were plated on poly-D-lysine coated plates and incubated for 48 hrs for cDNA transfection and for 48 to 72 hrs for siRNA transfection prior to assays. For synaptosomal preparations, brain cortex was dissected from mice (C57/B16, Harlan) and homogenized in 10 mM HEPES, 0.32 M Sucrose, pH 7.4 using a Teflon pestle/homogenizer. Homogenates were centrifuged at 1,000 g, 5 min at 4° C., and then the supernatant were re-centrifuged at 16,000 g, 20 min at 4° C. The pellets were collected as synaptosomes.
Assay buffers, transport assays, Ca^2+ imaging. NE transport assays on synaptosomes (50-100 μg/assay reaction) or cells were described previously (Sung et al., 2003). Uptake assay was carried out in KRH/Ca^2+ (mM: 120 NaCl, 4.7 KCl, 1.2 KH2PO4, 10 HEPES, 1.2 MgSO4, 2.2 CaCl2, pH 7.4,) with 0.1 mM pargylnine, ascorbic acid, tropolone, and 1.8 mg/ml glucose, otherwise mentioned. KRH/EGTA is KRH with 0.2 mM EGTA and without CaCl2. When KRH/EGTA was used, KRH/Ca^2+ for the parallel experiment contained 0.2 mM EGTA as well. Uptake assays were initiated by addition of [^3H]-NE (1-[7,8-^3H] noradrenaline, Amersham Pharmacia) at 50 nM final concentration. For kinetics assays, 50, 100, 200 nM of [^3H]-NE, 400, 600, 800, 1,000, 1,200, 1,500 nM of 20% [^3H]-NE and 80% of unlabeled NE (Sigma) were used. Nonspecific uptake was defined using 1-10 μM desipramine. All assays were carried out at 37° C. for 10 min in triplicates. Ca^2+ imaging was performed as described previously (Apparsundaram et al., 2001). CHO cells were pre-loaded with […] fura-2/acetoxymethyl ester (fura-2/AM, Molecular Probe) and superfused with KRH/EGTA and 1 μM thapsigargin for 10 min. The medium was replaced with KRH/Ca^2+ or KRH/EGTA before measurement of intracellular Ca^2+. All experiments derive from at least 3 independent data and mean values were evaluated using a two-tailed Student's t-test or a one-way ANOVA, followed by Tukey's test, with p<0.05 considered significant (*). Data were analyzed using GraphPad Prism 4.
Protocols for restoration and depletion of Ca^2+ For uptake assay, synaptosomes were pre-incubated with drugs in KRH/Ca^2+. For increase of Ca^2+, synaptosomes were re-suspended in KRH/EGTA, transferred to fresh KRH/EGTA (EGTA to EGTA) or KRH/Ca^2+ (EGTA to Ca^2+), and incubated at 37° C. for 5 min prior to the addition of radiolabeled NE. NE uptake activity of synaptosomes in KRH/Ca^2+ was compared to the activity of synaptosomes in KRH/EGTA. For reduction of Ca^2+, synaptosomes were first resuspended in KRH/Ca^2+, divided into 2 aliquots, replaced with fresh KRH/Ca^2+ (Ca^2+ to Ca^2+) or KRH/EGTA (Ca^2+ to EGTA), and incubated at 37° C. for 5 min prior to the addition of radiolabeled NE. NE uptake activity of synaptosomes in KRH/EGTA was compared to the activity of synaptosomes in KRH/Ca^2+. Control cells were treated the same way except use of complete media with vehicle. Restoration of Ca^2+ for surface biotinylation was carried out by incubating cells in KRH/EGTA with 0.1-1 μM thapsigargin for 10 min at 37° C. to deplete Ca^2+. Cells were washed once with KRH/EGTA, replaced with KRH/EGTA or KRH/Ca^2+, and incubated for 1 min at RT to 5 min at 37° C. prior to biotinylation. […]

The next test deals with human NET. Nature of the test: Surface biotinylation of HA-NET in transiently transfected CHO cells. It counts as cell-based.
In test [2] the test system is NET. Nature of the test: NE transport assay in CAD-NET cells. To be noted: KRH/Ca^2+. It counts as cell-based, human.
Description: Uptake assay was carried out in KRH/Ca^2+ (mM: 120 NaCl, 4.7 KCl, 1.2 KH2PO4, 10 HEPES, 1.2 MgSO4, 2.2 CaCl2, pH 7.4,) with 0.1 mM pargylnine, ascorbic acid, tropolone, and 1.8 mg/ml glucose, otherwise mentioned. KRH/EGTA is KRH with 0.2 mM EGTA and without CaCl2. When KRH/EGTA was used, KRH/Ca^2+ for the parallel experiment contained 0.2 mM EGTA as well. […] Nonspecific uptake was defined using 1-10 μM desipramine. All assays were carried out at 37° C. for 10 min in triplicates. […] All experiments derive from at least 3 independent data and mean values were evaluated using a two-tailed Student's t-test or a one-way ANOVA, followed by Tukey's test, with p<0.05 considered significant (*).
Test [3] relates to NET. The test can be described thus: Whole cell patch clamp recording of NET currents in SCG neurons. It counts as cell-based, rat. Particulars: 200 μM CdCl2, 5 μM KN93 15 min, 2 μM STO609 20 min. The procedure: Whole Cell Patch Clamp Recording of NET currents. Patch clamp experiments were performed using an amplifier Axopatch 200B with a low-pass filter set at 1 kHz. Quartz patch pipettes with 5-7 MΩ resistance were pulled by a programmable puller (model P-2000, Sutter Instruments Novato, Calif.) and filled with the internal solution containing (in mM): 120 KCl, 2 MgCl2, 10 HEPES, 2 MgATP, 30 dextrose and adjusted to pH 7.35. SCG neurons were washed twice with a control solution containing mMs 130 NaCl, 5 CaCl2, 0.5 MgCl2, 1.3 KCl, 10 HEPES, 34 dextrose adjusted to pH 7.35 before experiments. NET-mediated current was defined as the current recorded in control condition minus the current recorded in presence of 5 μM desipramine. Neurons were clamp at −50 mV and the NET-mediated current was recorded by stepping the membrane voltage to −120 mV for 500 ms before and after a 2 sec depolarizing step at −10 mV. NET-mediated current was studied in the control condition, in presence of 200 μM CdCl2, after 15 min preincubation with 5 μM KN93 and after 20 min preincubation with 2 μM STO609.
(Patch clamp records ionic current or voltage across a cell membrane.)

T1 sequence (O55192 whole entry): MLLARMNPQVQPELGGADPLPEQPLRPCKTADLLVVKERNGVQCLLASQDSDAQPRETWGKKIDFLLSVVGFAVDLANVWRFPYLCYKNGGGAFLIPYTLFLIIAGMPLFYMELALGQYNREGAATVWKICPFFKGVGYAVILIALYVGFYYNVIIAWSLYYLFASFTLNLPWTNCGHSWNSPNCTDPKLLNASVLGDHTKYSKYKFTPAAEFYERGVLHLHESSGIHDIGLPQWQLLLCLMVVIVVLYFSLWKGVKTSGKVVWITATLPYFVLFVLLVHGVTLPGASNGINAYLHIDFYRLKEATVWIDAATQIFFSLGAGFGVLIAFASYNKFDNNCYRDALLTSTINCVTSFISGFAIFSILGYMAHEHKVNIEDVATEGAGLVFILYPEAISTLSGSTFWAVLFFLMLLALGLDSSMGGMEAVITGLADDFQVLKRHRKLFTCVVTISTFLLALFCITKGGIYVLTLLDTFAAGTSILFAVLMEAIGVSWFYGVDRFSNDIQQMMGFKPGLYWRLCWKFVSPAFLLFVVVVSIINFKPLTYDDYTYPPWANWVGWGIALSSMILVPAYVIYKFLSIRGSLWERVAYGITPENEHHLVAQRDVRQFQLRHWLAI

`NC[C@H](O)c1ccc(O)c(O)c1` [NE, norepinephrine]: the “NE transport Vmax” value at NET [1] (KRH/EGTA) is recorded as 0.129+/−0.0129 pmol/mg protein/min.

Turning to `O=C(O)c1ccc2c3c1cccc3c(=O)n1c3ccccc3nc21` [STO-609], the “Effect on Ca^2+-depletion elicited reduction of NET surface density” value with human NET (CHO cells, 5 μM KN93 30 min or 5 μM STO-609 1 hour, Ca^2+ depletion) is “prevented a loss of NET from the surface”. Also, in the test on human NET (CHO cells, 5 μM KN93 30 min or 5 μM STO-609 1 hour, KRH/EGTA to KRH/Ca^2+), the “Effect on Ca^2+-stimulated elevation of NET surface density” value was “completely blocked the increase in surface NET protein”. Besides, the “Basal NE transport” value in the test with NET [2] is given as “did not influence basal NE transport”. Further, the “Effect on increase in NET current triggered by prior depolarization” value in the test on NET [3] is listed as “prevented the stimulation-elicited increase in NET currents”; in the test on NET [3] (listed as STO609), “converted the stimulation-induced increase into a stimulation-elicited decrease in NET currents”.

Take CdCl2: in the test with NET [3], the “Effect on increase in NET current triggered by prior depolarization” value was “prevented the increase in NET current”.

As to “NET T30E: human NET mutant designed to mimic constitutive phosphorylation at T30”, the “Change of transporter surface density in response to Ca^2+ manipulations (addition or depletion)” value in the test with human NET (HA-tagged NET mutants in CHO cells) was “failed to change”.

bisindolylmaleimide I [BIM]: at NET [1] (0.1-1 μM BIM, 5 μM KN93 or 10 μM W7, 15 min at 37° C.), the “NE transport in KRH/Ca^2+ after drug treatment” value is listed as “inhibited NE transport”. The “Effect on reduction in NET activity on switch from KRH/Ca^2+ to KRH/EGTA” value at NET [1] (pre-incubation with drug) was “failed to attenuate the loss of NET activity”. The “Effect on elevation in NET activity triggered by addition of Ca^2+” value on NET [1] (pre-incubation with drug, KRH/EGTA to KRH/Ca^2+) is “no ability to attenuate Ca^2+-stimulated NET activity”.
